This note sets out measurements from ChEMBL document CHEMBL1128598, “Potential anxiolytic agents. Pyrido[1,2-a]benzimidazoles: a new structural class of ligands for the benzodiazepine binding site on GABA-A receptors” (J Med Chem, 1995).

One experiment has as its system Rattus norvegicus. The experiment is described as follows: Minimum effective dose as dose required to release behavior in suppressed rats by conflict test after intraperitoneal administration. The experiment is classed as functional. To be noted: ip, read-out: MED.
In experiment [1] the target is GABA-A receptor; anion channel (Rattus norvegicus) (UniProt O09028+P15431+P18506+P18508+P19969+P20236+P23574+P23576+P28471+P28473+P30191+P62813+P63079+P63138+Q91ZM7+Q9ES14). The experiment is described as follows: GABA shift as the ratio of IC50 (no GABA) to that of IC50 (GABA); GABA shift. The experiment is classed as protein-complex assay.
The test system of another experiment is Mus musculus. The experiment is described as follows: The ability to block the tonic-clonic component of seizures induced by metrazole in mice after intraperitoneal administration. The class given is functional. To be noted: ip.
The target in experiment [2] is GABA-A receptor; anion channel. Kind of experiment: Binding affinity against benzodiazepine site of gamma-aminobutyric-acid A receptor of rat cerebral cortex by using [3H]flunitrazepam in the presence of GABA 1 mM. The class given is tissue-based.
Experiment [3] concerns the target GABA-A receptor; anion channel. The experiment is described as follows: Binding affinity against benzodiazepine site of gamma-aminobutyric-acid A receptor of rat cerebral cortex by using [3H]flunitrazepam in the absence of GABA. The class given is tissue-based.

pIC50: −log10 of the molar value. A value given as a limit tells only on which side of the number the result lay.

For the compound `NC(=O)C1=C(O)CCn2c1nc1ccccc12`, the minimal effective dose with Rattus norvegicus is 10 mg/kg. In addition, the GS in experiment [1] was 0.4. The same compound yielded an ED50 in the experiment on Mus musculus greater than 30 mg/kg. The pIC50 was 5.22 in experiment [2] and 5.62 in experiment [3].
On the same counts, the results for `O=C(Nc1ccccc1F)C1=C(O)CCn2c1nc1ccccc12` are 1 mg/kg, 1.2, 0.16 mg/kg, 8.85 and 8.77.
As to `O=C1CCN2C(=C1C(=O)Nc1ccccc1)N(Cc1ccccc1)c1ccccc12`, in the experiment on Rattus norvegicus, the minimal effective dose stood at 10 mg/kg. Also, the GS in experiment [1] came to 4.6. This compound registered an ED50 with Mus musculus of 1.4 mg/kg. Also, the pIC50 in experiment [2] is 8.57; in experiment [3], 7.92.
The corresponding values for `O=C(Nc1ccccc1Cl)C1=C(O)CCn2c1nc1ccccc12` are 10 mg/kg, 2.3, 0.95 mg/kg, 8.28 and 7.92.
On the same counts, the results for `O=C(Nc1ccccc1)c1c(O)ccn2c1nc1ccccc12` are 10 mg/kg, 1.7, 0.39 mg/kg, 7.85 and 7.62.
The corresponding values for `O=C(Nc1c(F)cccc1F)C1=C(O)CCn2c1nc1ccccc12` are 0.1 mg/kg, 1.6, 0.85 mg/kg, 8.77 and 8.55.
For `CN1C2=C(C(=O)Nc3ccccc3F)C(=O)CCN2c2ccccc21`, the minimal effective dose with Rattus norvegicus is 0.03 mg/kg. For the same compound, the GS in experiment [1] worked out at 1.6. In addition, the 50% effect level in the experiment with Mus musculus (ED50) was put at a dose of 0.019 mg/kg. Besides, the figures for the pIC50 in experiment [2] and in experiment [3] were 9.59 and 9.38, respectively.
Turning to `O=C(Nc1ccccc1F)c1c(O)ccn2c1nc1ccccc12`, the minimal effective dose with Rattus norvegicus worked out at 0.1 mg/kg. In experiment [1], the GS came out at 2.1. In the experiment with Mus musculus, this compound displayed an ED50 of 0.088 mg/kg. The results for the pIC50 in experiment [2] and in experiment [3] were 9.96 and 9.64, respectively.
The corresponding values for `O=C(NC1CC1)C1=C(O)CCn2c1nc1ccccc12` are greater than 10 mg/kg, 0.87, greater than 10 mg/kg, 7.74 and 7.80.
The corresponding values for `O=C(Nc1cccc(Cl)c1)C1=C(O)CCn2c1nc1ccccc12` are greater than 10 mg/kg, 1.3, greater than 30 mg/kg, 7.02 and 6.92.
Consider `O=C1CCn2c(nc3ccccc32)/C1=C(\O)Sc1ccccc1`, for which the minimal effective dose with Rattus norvegicus is greater than 10 mg/kg. The GS in experiment [1] was determined as 1.1. Besides, the ED50 in the experiment on Mus musculus is greater than 30 mg/kg. For the same compound, the pIC50 in experiment [2] is 7.59; in experiment [3], 7.54.
The corresponding values for `O=C(Nc1ccc(Cl)cc1)C1=C(O)CCn2c1nc1ccccc12` are 1 mg/kg, 2.3, 8.9 mg/kg, 6.58 and 6.21.
As to `O=C1CCN2C(=C1C(=O)Nc1ccccc1)Nc1ccccc12`, the minimal effective dose in the experiment with Rattus norvegicus is 10 mg/kg. Also, the GS in experiment [1] came to 1.5. In the experiment with Mus musculus, this compound came in with an ED50 of 5.2 mg/kg. Besides, the pIC50 was 8.23 in experiment [2] and 8.04 in experiment [3].
Turning to `CCO/C(O)=C1\C(=O)CCn2c1nc1ccccc12`, the GS in experiment [1] turned out to be 0.68. In the experiment with Mus musculus, the ED50 is greater than 10 mg/kg. Further, the pIC50 in experiment [2] is 6.08; in experiment [3], 6.17.
Consider `COc1ccc(NC(=O)C2=C(O)CCn3c2nc2ccccc23)cc1`, for which, in the experiment on Rattus norvegicus, the minimal effective dose was determined as 10 mg/kg. For the same compound, the GS in experiment [1] stood at 2.6. The 50% effect level in the experiment on Mus musculus (ED50) was put at a dose of 2 mg/kg. Also, the negative-log IC50 (pIC50) in experiment [2] is 7.80; in experiment [3] it was 7.39.
Take `CN(C(=O)C1=C(O)CCn2c1nc1ccccc12)c1ccccc1`: the minimal effective dose with Rattus norvegicus is greater than 10 mg/kg. The compound also registered an ED50 in the experiment on Mus musculus greater than 10 mg/kg. Further, the pIC50 in experiment [2] and in experiment [3] was less than 5.00 in each case.
As for `O=C(NC1CCCCC1)C1=C(O)CCn2c1nc1ccccc12`, the minimal effective dose with Rattus norvegicus was 10 mg/kg. Moreover, the GS in experiment [1] amounted to 2. This compound also had an ED50 in the experiment with Mus musculus of 3 mg/kg. Moreover, the pIC50 was 7.14 in experiment [2] and 6.85 in experiment [3].
Regarding `O=C1CCn2c(nc3ccccc32)/C1=C(\O)Oc1ccccc1`, in the experiment with Rattus norvegicus, the minimal effective dose is greater than 10 mg/kg. Besides, the GS in experiment [1] was 1.4. The ED50 with Mus musculus was found to be 9.9 mg/kg. Also, the negative logarithm of the IC50 (pIC50) in experiment [2] was 6.82; in experiment [3], 6.70.
`CN1C(=O)CN=C(c2ccccc2)c2cc(Cl)ccc21` [DIAZEPAM]: the minimal effective dose with Rattus norvegicus was 5 mg/kg. Further, in experiment [1], the GS turned out to be 2.2. The same compound gave an ED50 in the experiment with Mus musculus of 0.11 mg/kg.
Turning to `CCN1C2=C(C(=O)Nc3ccccc3)C(=O)CCN2c2ccccc21`, the minimal effective dose in the experiment on Rattus norvegicus amounted to 0.3 mg/kg. Moreover, the GS in experiment [1] was determined as 1.6. Besides, the ED50 with Mus musculus came out at 0.083 mg/kg. In addition, the pIC50 in experiment [2] is 8.85; in experiment [3] it was 8.68.
For the compound `OC1=C(/C(S)=N/c2ccccc2)c2nc3ccccc3n2CC1`, in the experiment on Rattus norvegicus, the minimal effective dose is greater than 10 mg/kg. Besides, the GS in experiment [1] was 1.1. Besides, the ED50 with Mus musculus is greater than 10 mg/kg. The pIC50 in experiment [2] is 6.49; in experiment [3], 6.44.
Consider `CN1C2=C(C(=O)Nc3ccccc3)C(=O)CCN2c2ccccc21`, for which, in the experiment with Rattus norvegicus, the minimal effective dose stood at 1 mg/kg. In addition, the GS in experiment [1] was found to be 2.8. Moreover, it took a dose of 0.13 mg/kg to reach the 50% effect level in the experiment on Mus musculus (ED50). Further, the negative logarithm of the IC50 (pIC50) in experiment [2] was 8.68; in experiment [3], 8.24.
On the same counts, the results for `O=C(Nc1c(Cl)cccc1Cl)C1=C(O)CCn2c1nc1ccccc12` are greater than 10 mg/kg, 1.9, greater than 30 mg/kg, 6.77 and 6.49.
As for `O=C(NC1CCC1)C1=C(O)CCn2c1nc1ccccc12`, in the experiment with Rattus norvegicus, the minimal effective dose was found to be 10 mg/kg. For the same compound, the GS in experiment [1] was 1.2. Further, in the experiment with Mus musculus, the ED50 is greater than 30 mg/kg. The pIC50 in experiment [2] was 7.60; in experiment [3], 7.52.
As for `COc1cccc(NC(=O)C2=C(O)CCn3c2nc2ccccc23)c1`, in the experiment with Rattus norvegicus, the minimal effective dose is 5 mg/kg. In experiment [1], the GS was 1.6. Moreover, in the experiment with Mus musculus, the ED50 was greater than 10 mg/kg. Besides, the pIC50 is 7.80 in experiment [2] and 7.59 in experiment [3].
The corresponding values for `COc1ccccc1NC(=O)C1=C(O)CCn2c1nc1ccccc12` are greater than 10 mg/kg, 1.1, greater than 10 mg/kg, 6.03 and 6.00.

The term ED50 denotes the dose at which the effect has come halfway, by size or by number of responders. As a reminder, the pIC50 is the IC50 on a negative log10 scale, so that one unit is a factor of ten.
